tested on: model animals of ulcerative colitis (3% DSS); assay: Therapeutic experiment using model animals of ulcerative colitis (Example 4); format: in vivo, C57BL6 mice; conditions: DSS mice, 5-ASA 300 mg/kg/day, Day 7
Protocol: To C57BL6 mice of 8 weeks old, 3% DSS (dextran sulfate sodium)-containing water or water (control) was administered by allowing the mice to drink it for 7 days. For the mice to which DSS was administered, groups in which 5-ASA (compound name: 5-aminosalicylic acid; generic name: Mesalazine), which is a therapeutic agent for inflammatory bowel diseases, the compound synthesized in Example 2-7 (H-31), or the compound synthesized in Example 2-36 (H-179) was administered, and a group in which no compound was administered were provided. On Day 7 after the beginning of the administration, the body weight of each mouse was measured, and the large intestine was removed from the mouse, followed by carrying out histological study. […] In FIGS. 4(A) and (B), “normal” indicates a case where water was administered, and “DSS” indicates cases where DSS-containing water was administered. “non” indicates a case where no compound was administered, and “5-ASA”, “H-31”, and “H-179” indicate cases where the respective compounds were administered. The dose was as follows: 5-ASA, 300 mg/kg/day; H-31, 1 mg/kg/day; H-179, 1 mg/kg/day. As shown in FIG. 4(A), weight loss due to inflammation of the intestine was found in the cases where DSS was administered.

| SMILES | tissue damage in the large intestine (stained section) |
| --- | --- |
| Nc1ccc(O)c(C(=O)O)c1 [Compound 5-ASA, 5-aminosalicylic acid, reference compound] | tissue damage in the large intestine due to DSS was found |

same assay, conditions: DSS mice, compound 1 mg/kg/day, Day 7

| SMILES | tissue damage in the large intestine (stained section) |
| --- | --- |
| O=C(COc1cccc2ccccc12)O[C@H](Cc1ccc2ccccc2c1)C(=O)O [Compound H-179] | tissue damage in the large intestine was hardly found |

same assay, conditions: DSS mice, compound 1 mg/kg/day, Day 7, vs no compound

| SMILES | weight loss (body weight as ratio to body weight before administration) |
| --- | --- |
| O=C(COc1cccc2ccccc12)O[C@H](Cc1ccc2ccccc2c1)C(=O)O [Compound H-179] | the weight loss was significantly smaller |

target: T1, Pin1 (Homo sapiens, UniProt Q13526); assay: Evaluation of inhibitory activity on function of Pin1: cell assay using degree of AMPK phosphorylation as index; format: cell-based; parameters: key to Pin1 inhibitory activity: −: Promotion of AMPK phosphorylation was not (or hardly) found.; +: Phosphorylation of AMPK was promoted, but the promotion was weaker than that by C1.; ++: Phosphorylation of AMPK was promoted to the same degree as in the case of C1.; +++: Phosphorylation of AMPK was promoted more strongly than in the case of C1; conditions: 293T cells, compound 100 μM, 10 mM 2-DG, pAMPK immunoblot rated by comparison with C1
T1 construct: endogenous in cells; host or cells: 293T cells
T1 sequence (Q13526 whole entry): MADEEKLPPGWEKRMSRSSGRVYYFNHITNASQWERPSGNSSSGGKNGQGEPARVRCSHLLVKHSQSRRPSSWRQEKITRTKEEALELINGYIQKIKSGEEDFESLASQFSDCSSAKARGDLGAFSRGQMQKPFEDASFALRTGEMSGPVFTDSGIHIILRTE
Protocol: In order to evaluate the inhibitory activities of the compounds of the present invention synthesized in Example 2 on the function of Pin1, an assay using cells was carried out according to a method previously developed by the present inventors (Yusuke Nakatsu et al., Journal of Biological Chemistry, 2015, Vol. 290, No. 40, pp. 24255-24266), using as an index the degree of phosphorylation of AMPK (AMP-activated protein kinase), whose phosphorylation is known to be suppressed by Pin1.
Briefly, 293T cells were plated on a 24-well plate coated with collagen. Forty-eight hours later, each compound (100 μM) synthesized in the Example was added to the plate, and the plate was left to stand in an incubator for 30 minutes. Thereafter, 10 mM 2-DG was added to the plate, and, 1 hour later, each sample was collected using a buffer containing mercaptoethanol and SDS.
According to conventional methods, SDS-PAGE and blotting were carried out, and then blocking was carried out with 3% BSA for 1 hour. Thereafter, reaction was carried out at normal temperature for 1 hour with each of a pAMPK antibody (Cell signaling 1:2000, Can get signal solution 1: diluted by Toyobo) as a primary antibody, and an HRP-linked anti rabbit IgG (GE healthcare 1:4000, Can get signal solution 2: diluted by Toyobo) as a secondary antibody, to perform detection.
As a compound to be compared, C1: (R)-2-(5-(4-methoxyphenyl)-2-methylfuran-3-carboxamido)-3-(naphthalene-6-yl)propanoic acid, which is an already reported Pin1 inhibitor, was used.
In FIG. 3, “-” indicates the degree of phosphorylation of AMPK in a case where no Pin1 inhibitor was added, and “C1”, “H-30”, “H-31”, “H-32”, and “H-33” indicate the degrees of phosphorylation of AMPK in cases where the respective Pin1 inhibitors were added. […] The inhibitory activity on the function of Pin1 was rated as follows based on comparison with the degree of inhibition by C1.

| SMILES | Pin1 inhibitory activity |
| --- | --- |
| O=C(O[C@H](Cc1ccc2ccccc2c1)C(=O)OCc1ccccc1)c1ccc2ccccc2c1 [Compound H-21] | − |
| COc1ccc(-c2cc(C(=O)O[C@H](Cc3ccc4ccccc4c3)C(=O)O)c(C)o2)cc1 [Compound H-32] | + |
| O=C(CC1c2ccccc2-c2ccccc21)O[C@H](Cc1ccc2ccccc2c1)C(=O)O [Compound H-106] | ++ |
| O=C(O[C@H](Cc1ccc2ccccc2c1)C(=O)O)C(c1ccccc1)c1ccccc1 [Compound H-134] | ++ |
| O=C(O[C@@H](Cc1ccc2ccccc2c1)C(=O)O)C1c2ccccc2-c2ccccc21 [Compound H-141] | +++ |
| O=C(O)[C@@H](Cc1ccc2ccccc2c1)OC(=O)N1c2ccccc2Oc2ccccc21 [Compound H-157] | ++ |
| O=C(O)[C@@H](Cc1ccc2ccccc2c1)OC(=O)n1c2ccccc2c2ccccc21 [Compound H-175] | +++ |
| O=C(Cc1c[nH]c2ccccc12)O[C@H](Cc1ccc2ccccc2c1)C(=O)O [Compound H-180] | ++ |
| COc1cc(OC)cc(C(=O)O[C@H](Cc2ccc3ccccc3c2)C(=O)O)c1 [Compound H-198] | + |
| O=C(O[C@H](Cc1ccc2ccccc2c1)C(=O)O)c1cc(Cl)cc(Cl)c1 [Compound H-200] | + |
| Cc1cc(C)cc(C(=O)O[C@H](Cc2ccc3ccccc3c2)C(=O)O)c1 [Compound H-210] | + |
| CC(C)(C)OC(=O)N[C@@H](Cc1ccccc1)C(=O)O[C@H](Cc1ccc2ccccc2c1)C(=O)O [Compound H-248] | + |
| Cc1ccc(C(=O)O[C@H](Cc2ccc3ccccc3c2)C(=O)O)cc1C [Compound H-265] | + |
| COc1ccc(C(=O)O[C@H](Cc2ccc3ccccc3c2)C(=O)O)cc1OC [Compound H-266] | + |
| O=C(O[C@H](Cc1ccc2ccccc2c1)C(=O)O)c1ccc(Cl)c(Cl)c1 [Compound H-269] | + |
| O=C(O[C@H](Cc1ccc2ccccc2c1)C(=O)O)c1ccc(F)c(F)c1 [Compound H-270] | + |

More lines, now with the values ahead:

| Pin1 inhibitory activity | SMILES |
| --- | --- |
| ++ | O=C(O[C@H](Cc1ccc2ccccc2c1)C(=O)O)c1ccc(C(O)c2ccccc2)cc1 (stereo partly shown) [Compound H-23] |
| ++ | O=C(O[C@H](Cc1ccc2ccccc2c1)C(=O)O)c1ccc2ccccc2c1 [Compound H-30] |
| + | O=C(O[C@H](Cc1ccc2ccccc2c1)C(=O)O)c1ccc(-c2ccccc2)cc1 [Compound H-33] |
| ++ | O=C(O[C@H](Cc1ccc2ccccc2c1)C(=O)O)c1ccc(Oc2ccccc2)cc1 [Compound H-123] |
| ++ | O=C(O[C@H](Cc1ccc2ccccc2c1)C(=O)O)c1cccc(Oc2ccccc2)c1 [Compound H-130] |
| + | O=C(O[C@H](Cc1ccc2ccccc2c1)C(=O)O)c1ccccc1Oc1ccccc1 [Compound H-132] |
| + | O=C(Cc1ccc2ccccc2c1)O[C@H](Cc1ccc2ccccc2c1)C(=O)O [Compound H-149] |
| ++ | O=C(Cc1cccc2ccccc12)O[C@H](Cc1ccc2ccccc2c1)C(=O)O [Compound H-151] |
| ++ | O=C(COc1ccccc1)O[C@H](Cc1ccc2ccccc2c1)C(=O)O [Compound H-176] |
| ++ | O=C(COc1ccc2ccccc2c1)O[C@H](Cc1ccc2ccccc2c1)C(=O)O [Compound H-177] |
| +++ | O=C(COc1cccc2ccccc12)O[C@H](Cc1ccc2ccccc2c1)C(=O)O [Compound H-179] |

same assay, conditions: cell-based experiment, 293T cells, 100 μM

| inhibitory activity on Pin1 (stated in words) | SMILES |
| --- | --- |
| no inhibitory activity on Pin1 | O=C(O[C@H](Cc1ccc2ccccc2c1)C(=O)OCc1ccccc1)c1ccc2ccccc2c1 [Compound H-21] |
| both have inhibitory activities on Pin1 | O=C(O[C@@H](Cc1ccc2ccccc2c1)C(=O)O)C1c2ccccc2-c2ccccc21 [Compound H-141] |

tested on: Pin1 protein; assay: Confirmation of Pin1 expression level in the intestinal tract of DSS mice (Example 7); format: in vivo; conditions: after 7 days of administration
Protocol: The expression level of Pin1 in the intestinal tract was measured for each mouse subjected to the therapeutic experiment in Example 5.
The present results also support that the compound synthesized in Example 2-7 (H-31) prevents development of ulcerative colitis.

| SMILES | increase in the Pin1 protein level in the intestinal tract |
| --- | --- |
| Nc1ccc(O)c(C(=O)O)c1 [Compound 5-ASA, 5-aminosalicylic acid, reference compound] | could not be ameliorated |

tested on: model animals of ulcerative colitis (3% DSS); assay: Therapeutic experiment using model animals of ulcerative colitis 2 (Example 6); format: in vivo, C57BL6 mice; conditions: DSS mice, 5-ASA 300 mg/kg/day or 150 mg/kg/day
Protocol: To C57BL6 mice of 8 weeks old, 3% DSS (dextran sulfate sodium)-containing water or water (control) was administered by allowing the mice to drink it for 7 days. […] On Day 7 after the beginning of the administration, the body weight of each mouse was measured, and the large intestine was removed from the mouse, followed by carrying out histological study. […] In addition, an experiment for measuring the colon length was carried out.

| SMILES | tissue damage in the large intestine (stained section) | weight loss |
| --- | --- | --- |
| Nc1ccc(O)c(C(=O)O)c1 [Compound 5-ASA, 5-aminosalicylic acid, reference compound] | tissue damage in the large intestine due to DSS was found | No significant effect was found |

tested on: mice having induced inflammation of the large intestine; assay: not given; conditions: oral administration to mice, Non-patent Document 7; cited from earlier work

| SMILES | development of inflammation of the large intestine |
| --- | --- |
| COc1ccc(-c2cc(C(=O)N[C@H](Cc3ccc4ccccc4c3)C(=O)O)c(C)o2)cc1 [Compound C1, (R)-2-(5-(4-methoxyphenyl)-2-methylfuran-3-carboxamido)-3-(naphthalene-6-yl)propanoic acid] | development of the inflammation can be suppressed |
| O=C1C=CC(=O)c2c(O)cccc21 [Juglone] | development of the inflammation can be suppressed |

Reference: patent US11203565B2, “Ester compound and PIN1 inhibitor, inflammatory disease therapeutic, and colon cancer therapeutic in which said ester compound is used” (Hiroshima University, priority 2016, dated 2021)
